Data on twelve compounds can be found in ChEMBL document CHEMBL4613290, “Discovery of Reversible Inhibitors of KDM1A Efficacious in Acute Myeloid Leukemia Models” (ACS Med Chem Lett, 2020).

Data set [1] has as its system THP-1. As to the kind of experiment: Anticlonogenic activity against human THP1 cells assessed as inhibition of colony formation at 500 nM measured after 13 days relative to control. The format is functional. The note with it: THP-1, 312 h.
Data set [2] deals with THP-1. Description: Anticlonogenic activity against human THP1 cells assessed as inhibition of colony formation at 50 nM measured after 13 days relative to control. The format is functional. The note with it: THP-1, 312 h.
In data set [3] the target is Lysine-specific histone demethylase 1A (Homo sapiens, UniProt O60341). Description: Inhibition of recombinant human LSD1 expressed in Escherichia coli using biotinylated H3K4me as substrate by TR-FRET assay.
Data set [4] is described as follows: AUC (0 to infinity) in CD-1 mouse at 15 mg/kg, po administered as single dose. Also on record: dose 15 mg/kg, time infinity, route oral. The note with it: in vivo. The format is ADME, organism-based.
Data set [5] can be described thus: Antitumor activity against mouse APL blast injected in non-irradiated mouse assessed as increase in mouse survival at 30 mg/kg, po administered 5 days per week for 2 weeks starting after 10 days post-injection by Kaplan-Meier plot analysis relative to control. The class given is functional.
The nature of data set [6]: Cmax in CD-1 mouse at 5 mg/kg, iv administered as single dose. The class given is ADME, organism-based. Also on record: dose 5 mg/kg, route intravenous. The note with it: in vivo.
Data set [7] can be described thus: Antitumor activity against mouse APL blast injected in non-irradiated mouse assessed as increase in mouse survival at 15 mg/kg, po administered 5 days per week for 2 weeks starting after 10 days post-injection by Kaplan-Meier plot analysis relative to control. The format is functional.
Data set [8] can be described thus: Toxicity in non-irradiated mouse injected with APL blast cells assessed as effect on body weight at 60 mg/kg, po administered 5 days per week for 2 weeks starting after 10 days post-injection measured after 1st week of treatment. Particulars: in vivo. The format is organism-based.
A short description of data set [9]: Tmax in CD-1 mouse at 15 mg/kg, po administered as single dose. The class given is ADME, organism-based. Particulars: in vivo.
A short description of data set [10]: Toxicity in sub-lethal irradiated C57BL6JCRL mouse xenografted with human MLL-AF9 cells assessed as effect on body weight at 15 to 30 mg/kg, po administered 5 days per week for 2 weeks starting after 10 days post-injection. Particulars: in vivo. The class given is organism-based.
Data set [11] can be described thus: Half life in CD-1 mouse at 5 mg/kg, iv administered as single dose. The format is ADME, organism-based. Particulars: in vivo.
A further data set deals with Mus musculus. As to the kind of experiment: Antitumor activity against mouse APL blast injected in non-irradiated po dosed mouse assessed as increase in mouse survival administered 5 days per week for 2 weeks starting after 10 days post-injection by Kaplan-Meier plot analysis relative to control. The format is functional, organism-based.
Data set [12] can be described thus: Antitumor activity against human MLL-AF9 xenografted in sub-lethal irradiated C57BL6JCRL mouse assessed as increase in mouse survival at 30 mg/kg, po administered 5 days per week for 2 weeks starting after 10 days post-injection by Kaplan-Meier plot analysis relative to control. The class given is functional.
Data set [13] in a line: Antitumor activity against human MLL-AF9 xenografted in sub-lethal irradiated C57BL6JCRL mouse assessed as increase in mouse survival at 15 mg/kg, po administered 5 days per week for 2 weeks starting after 10 days post-injection by Kaplan-Meier plot analysis relative to control. The format is functional.
Data set [14] in a line: AUC (0 to infinity) in CD-1 mouse at 5 mg/kg, iv administered as single dose. Particulars: in vivo. Further details: dose 5 mg/kg, time infinity, route intravenous. The class given is ADME, organism-based.
The nature of data set [15]: Oral bioavailability in CD-1 mouse at 15 mg/kg administered as single dose. The format is ADME, organism-based. The note with it: in vivo.
The nature of data set [16]: Volume of distribution at steady state in CD-1 mouse at 5 mg/kg, iv administered as single dose. The class given is ADME, organism-based. The note with it: in vivo, read-out: Vdss.
A short description of data set [17]: Cmax in CD-1 mouse at 15 mg/kg, po administered as single dose. The note with it: in vivo. Further details: dose 15 mg/kg, route oral. The class given is ADME, organism-based.
Data set [18] is described as follows: Toxicity in non-irradiated mouse injected with APL blast cells assessed as effect on body weight at 15 and 30 mg/kg, po administered 5 days per week for 2 weeks starting after 10 days post-injection. The format is organism-based. Particulars: in vivo.
Data set [19] can be described thus: Clearance in CD-1 mouse at 5 mg/kg, iv administered as single dose. The class given is ADME, organism-based. The note with it: in vivo.

Turning to `CCCc1cn(CCCc2ccc(OC3CCCNCC3)cc2)c(-c2cc3sccc3n2C)n1` (stereo not given), in the data set with THP-1 [1], the inhibition at 0.5 µM is 64.2%. In the data set on THP-1 [2], the inhibition at 0.05 µM worked out at 46.6%.
In the case of `Cn1c(-c2ncc(-c3ccccc3)o2)cc2sccc21`, the IC50 in [3] was greater than 100 µM.
As for `Cn1c(-c2nc(C3CCC3)cn2CCCc2ccc(OC3CCCNCC3)cc2)cc2sccc21` (stereo not given), the inhibition at 0.5 µM in the data set on THP-1 [1] amounted to 74.2%. Moreover, in the data set on THP-1 [2], the inhibition at 0.05 µM was found to be 40.9%.
In the same order, the values of `CCc1cn(CCOc2ccc(OC3CCNCC3)cc2)c(-c2cc3sccc3n2C)n1` are 72.3% and 27.6%.
Consider `Cn1c(-c2nnc(-c3ccccc3)[nH]2)cc2sccc21`, for which, in [3], the IC50 is greater than 100 µM.
Turning to `Cn1c(-c2nc(C3CCC3)cn2CCCc2ccc(OC3CCNCC3)cc2)cc2sccc21`, the AUC(0-inf) in data set [4] came to 2.03 µM·h; in data set [14] it was 4.2 µM·h. In addition, the Activity in data set [5] was 55%; in data set [7], 20%; in [8] it was “Toxic”; in data set [10], “Non-Toxic”; with Mus musculus it was “Dose-dependent effect”; in data set [12], 70%. Besides, the figures for the Activity in data set [13] and in data set [18] were 29% and “Non-Toxic”, respectively. Also, the Cmax in [6] came out at 2540 nM; in data set [17], 320 nM. In addition, in data set [9], the Tmax was 0.417 h. Further, the inhibition at 0.5 µM in the data set on THP-1 [1] stood at 72.3%. The half-life in data set [11] is 6 h. Further, the inhibition at 0.05 µM with THP-1 [2] was 38.8%. For the same compound, in data set [15], the bioavailability worked out at 17%. The Vd in data set [16] was 10.2 L/kg. This compound had a clearance in [19] of 37.5 mL/min/kg.
Regarding `Cn1c(-c2nc(C3CCC3)cn2CCOc2ccc(OC3CCNCC3)cc2)cc2sccc21`, the inhibition at 0.5 µM in the data set with THP-1 [1] was determined as 73.3%. Also, the inhibition at 0.05 µM in the data set with THP-1 [2] stood at 33%.
Consider `Cn1c(-c2nc3ccccc3[nH]2)cc2sccc21`, for which, in data set [3], the IC50 was greater than 100 µM.
Still for that read-out and setting: with `Cn1c(-c2nnc(-c3ccccc3)o2)cc2sccc21` the figure was greater than 100 µM; with `Cn1c(NC(=O)c2ccccc2)cc2sccc21`, greater than 100 µM.
On the same count and under the same terms, with `Cn1c(C(=O)Cc2ccccc2)cc2sccc21` the figure was greater than 100 µM.
On to `CCc1cn(CCCc2ccc(OC3CCNCC3)cc2)c(-c2cc3sccc3n2C)n1`, for which, in the data set with THP-1 [1], the inhibition at 0.5 µM amounted to 61.4%. Besides, in the data set with THP-1 [2], the inhibition at 0.05 µM is 33.3%.
